Experimental findings from patent US5885782A, “Synthetic antibiotics” (priority 1997, dated 1999) are described below.

One test deals with Aspergillus fumigatus. Briefly: Checkerboard combination of peptide with antifungal agent (Limpel method), Aspergillus fumigatus. The class given is cell-based. Here is the method: (§1) Antimicrobial peptides were mixed with known antifungal compounds according to the checkerboard method of Eliopoulos and Moellering, 1991 and the effect of these mixtures was determined.
(§2) The checkerboard method requires serial dilutions of two antimicrobial compounds in concentration ranges spanning the minimal inhibitory concentrations (MICs) of the compounds. Synergism, antagonism, or additivity of the drug combinations was by measured by determining the antimicrobial effect of the various dilutions of the two drugs. Synergism existed when the antimicrobial effect of a mixture was greater than the sum of the independent antimicrobial effects of its combined components. Additivity was indicated when the antimicrobial effect of a drug combination was simply the sum of the independent antimicrobial effects. Antagonism existed when the antimicrobial effect of a mixture of drugs was less than the sum of the independent antimicrobial effects of the separate drugs.
(§3) Synergism between known antifungal compounds and antifungal peptides was also studied using the method of Limpel as described by Richer. Richer, D. L. 1987. The methodology of Limpel is described by the equation: […]
(§4) Where Ec is the expected additive effect of two antifungal agents, X is the observed percentage inhibition of the test organism when antifungal agent A is applied alone at the rate used in the mixture, and Y is the observed percentage inhibition of the test organism when antifungal agent B is used alone at the rate used in the mixture. […] Richer, D. L. 1987.
(§5) Experimental studies were set up using the checkerboard method as described by Eliopoulos and Moellering, 1991. The observed inhibitory effects of the antifungal agent and peptide combinations were measured as described above and compared with Ec as calculated from the Limpel formula.

In a further test the test system is Aspergillus paraciticus. Description: Checkerboard combination of peptide with antifungal agent (Limpel method), Aspergillus paraciticus. The class given is cell-based. How it is done:
as §1, §2, §3, §4, §5

In test [1] the test system is Fusarum oxysporum f. sp. lycopersici race 1, strain RMI. Description: Checkerboard combination of peptide with antifungal agent (Limpel method), Fusarium. Type of test: cell-based, Fusarium oxysporum. Also noted: key to Expected Inhibition (Limpel formula): expected % inhibition, Ec = X + Y - XY/100 (Limpel). Here is the method:
as §1, §2
Frozen glycerol stocks of F. oxysporum f. sp. lycopersici microconidia were used for the bioassays. Microconidia or spores were thawed on ice, washed 2× in PDB, and diluted in 2× PDB to obtain the appropriate inoculum concentration for the assay. The 2× PDB was employed for the dilutions to obtain a final concentration of I× PDB in each test well. Microtiter plates were incubated without shaking, in the dark, at 250 C. Absorbance readings were recorded at 24 hr intervals for 72 h. To follow growth in the microtiter plates, an EMAX PRECISION MICROPLATE READER (Molecular Devices Corp., Menlo Park, Calif.) attached to a HEWLETT-PACKARD THINK-JET (Hewlett-Packard Company, Vancouver, Wash.) printer was used to obtain the absorbance (at 595 run) readings. All test combinations were performed in triplicate. Sterile, disposable, flat bottom, polystyrene, 96~well (with lid) microtiter plates (Corning Glass Works, Scientific Products Division, Corning, N.Y.) were used to conduct the assays. The initial concentration of peptide FRLKFH-NH2 (Seq. ID No.34), peptide FRLKFHI-NH2 (Seq. ID No.40), nystatin (5.13 units/ug), and miconazole used in the assay series were 26, 60, 88, and 60 ug/ml, respectively. The checkerboard was setup as described by Eliopoulos and Moellering, 1991. Once the checkerboard mixtures were prepared 50 ul of inoculum […] was added to each of the wells. F. oxysporum f. sp. lycopersici microconidia were produced using FLC medium. Esposito, R. and Fletcher, A. M. 1961. A 4 mm square of an actively growing culture was taken from PDA to 50 ml of FLC broth in a sterile 250 ml screwcap flask. The culture was incubated with shaking […] at 250 C. After 96 h, the slurry of mycelia and microconidia was filtered twice through 3 layers of sterile cheesecloth to obtain the microconidial suspension. The microconidial suspension was adjusted to a concentration of 1-5×10^7 microconidial/ml using a Brightlme hemacytometer (Hausser Scientific, Horsham, Pa.) and stored frozen in I ml aliquots in 20% sterile glycerol at -80C.
as §3, §4, §5

The mark [2] stands for this setting: Nystatin 0 ug/ml, Peptide 0.6 ug/ml.
Setting [3] is: Nystatin 0 ug/ml, Peptide 1.3 ug/ml.
Where [4] appears, read: Nystatin 0 ug/ml, Peptide 2.5 ug/ml.
[5] abbreviates: Nystatin 0 ug/ml, Peptide 5 ug/ml.
Where [6] appears, read: Nystatin 0.3 ug/ml, Peptide 0 ug/ml.
The mark [7] stands for this setting: Nystatin 0.6 ug/ml, Peptide 0 ug/ml.
The mark [8] stands for this setting: Nystatin 1.3 ug/ml, Peptide 0 ug/ml.
Where [9] appears, read: Nystatin 2.5 ug/ml, Peptide 0 ug/ml.
[10] abbreviates: Nystatin 5 ug/ml, Peptide 0 ug/ml.
[11] abbreviates: Nystatin 10 ug/ml, Peptide 0 ug/ml.
[12] abbreviates: Nystatin 20 ug/ml, Peptide 0 ug/ml.

Consider “FRLKFHI [D- amino acid heptapeptide FRLKFHI-NH2]”, for which the “interaction with miconazole (observed vs expected inhibition)” value with Aspergillus fumigatus (peptide 1.340 ug/ml, miconazole 0.5-2.0 ug/ml, Table XIX) is listed as “synergism”; in the test with Aspergillus paraciticus (peptide 3.8-60 ug/ml, miconazole 0.2-1.3 ug/ml, Table XXIII) it was “synergism”. The “interaction with fluconazole (observed vs expected inhibition)” value is given as “synergism” with Aspergillus fumigatus (peptide 1.3-20 ug/ml, fluconazole 28.7-229.5 ug/ml, Table XXI) and “synergism” in test [1] (peptide 1.3-20 ug/ml, fluconazole 28.7-229.5 ug/ml, Fusarium oxysporum, Table XXVII). The “interaction with amphotericin B (observed vs expected inhibition)” value in test [1] (peptide 0.9-7.0 ug/ml, amphotericin B 0.9-7.5 ug/ml, Fusarium oxysporum, Table XV) was “synergism”.
Turning to “FRLKFH: D-amino acid hexapeptide FRLKFH-NH2”, in the test with Aspergillus fumigatus (peptide 4.4-7.5 ug/ml, nystatin 0.6-2.5 ug/ml, Table XXII), the “interaction with nystatin (observed vs expected inhibition)” value is “synergism”. Also, in the test with Aspergillus fumigatus (peptide 17.5-70 ug/ml, miconazole 0.3-2.0 ug/ml, Table XX), the “interaction with miconazole (observed vs expected inhibition)” value is listed as “synergism”. Moreover, in test [1] (peptide 5.0-10.0 ug/ml, amphotericin B 0.3-2.0 ug/ml, Fusarium oxysporum, Table XVI), the “interaction with amphotericin B (observed vs expected inhibition)” value is recorded as “synergism”.
As for “FRLKFHF [D-amino acid heptapeptide FRLKFHF-NH2]”, the “interaction with fluconazole (observed vs expected inhibition)” value in the test with Aspergillus fumigatus (peptide 1.3-20.0 ug/ml, fluconazole 29-230 ug/ml, Table XVIII) was “synergism”; in the test on Aspergillus paraciticus (peptide 2.5-20 ug/ml, fluconazole 7.5-120 ug/ml, Table XXV), “synergism”. For the same molecule, the “interaction with amphotericin B (observed vs expected inhibition)” value in the test on Aspergillus paraciticus (peptide 2.5-10 ug/ml, amphotericin B 0.2-0.6 ug/ml, Table XXIV) is “synergism”. Further, the “interaction with nystatin (observed vs expected inhibition)” value is “synergism” in the test on Aspergillus paraciticus (peptide 2.5-10 ug/ml, nystatin 0.3-5.0 ug/ml, Table XXVI) and “synergism” in test [1] (nystatin 0.3-5 ug/ml, peptide 0.6-5 ug/ml, Fusarium oxysporum, Table XIV). Further, the “Expected Inhibition (Limpel formula)” value in test [1] (setting [2]) is listed as 2.0; in test [1] (setting [3]), 0.0; in test [1] (setting [4]) it was 13.0; in test [1] (setting [5]), 29.0. Moreover, the “Observed Inhibition (percentage inhibition)” value amounted to 2.0 in test [1] (setting [2]), 0.0 in test [1] (setting [3]), 13.0 in test [1] (setting [4]) and 29.0 in test [1] (setting [5]). In addition, the “interaction with miconazole (observed vs expected inhibition)” value in test [1] (peptide 1.3-5.0 ug/ml, miconazole 0.6-20 ug/ml, Fusarium oxysporum, Table XVII) is “synergism”.
Consider `C[C@@H]1[C@H](O)[C@@H](C)/C=C/C=C/CC/C=C/C=C/C=C/C=C/C(O[C@H]2O[C@H](C)[C@@H](O)[C@H](N)[C@@H]2O)CC2O[C@](O)(CC(O)C(O)CCC(O)CC(O)CC(O)CC(=O)O[C@H]1C)CC(O)C2C(=O)O` (stereo partly drawn) [Nystatin, nystatin], for which the “Expected Inhibition (Limpel formula)” value is 6.0 in test [1] (setting [6]); 3.0 in test [1] (setting [7]); 4.0 in test [1] (setting [8]); 1.0 in test [1] (setting [9]); 16.0 in test [1] (setting [10]); 100.0 in test [1] (setting [11]). Besides, the “Expected Inhibition (Limpel formula)” value in test [1] (setting [12]) was 100.0. The “Observed Inhibition (percentage inhibition)” value came out at 6.0 in test [1] (setting [6]); 3.0 in test [1] (setting [7]); 4.0 in test [1] (setting [8]); 1.0 in test [1] (setting [9]); 16.0 in test [1] (setting [10]); 100.0 in test [1] (setting [11]). The “Observed Inhibition (percentage inhibition)” value in test [1] (setting [12]) worked out at 100.0.
